Measurements: ChEMBL document CHEMBL1201862, “PubChem BioAssay data set” (2004)
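96-well plates; 48 h exposure; 5 concentrations. Endpoints by linear interpolation between flanking doses. Not reached: highest tested concentration assigned. GI50 = concentration required for 50% inhibition of growth.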 Calls of active or inactive are those of the source. Rule as the data show it: active = GI50 up to about 1.1 µM and inactive = higher.

Tests used:
Assay in all cases: NCI-60 cell line screen, 48 h
[1] = test system: EKVX
[2] = test system: HCT-116
[3] = test system: SR
[4] = test system: SK-MEL-2
[5] = test system: NCI-H226
[6] = test system: OVCAR-8
[7] = test system: SNB-75
[8] = test system: A549
[9] = test system: OVCAR-4
[10] = test system: NCI-H23
[11] = test system: SK-MEL-28
[12] = test system: XF498
[13] = test system: ACHN
[14] = test system: K562
[15] = test system: HT-29
[16] = test system: HL-60
[17] = test system: SF-268
[18] = test system: 786-0
[19] = test system: CCRF-CEM
[20] = test system: OVCAR-5
[21] = test system: Malme-3M
[22] = test system: DMS-114
[23] = test system: HOP-92
[24] = test system: DLD-1
[25] = test system: DMS-273
[26] = test system: SNB-19
[27] = test system: TK-10
[28] = test system: UACC-62
[29] = test system: SNB-78
[30] = test system: M19-MEL
[31] = test system: NCI-H460
[32] = test system: RPMI-8226
[33] = test system: LXFL 529
[34] = test system: M14
[35] = test system: U-251
[36] = test system: LOX IMVI
[37] = test system: A498
[38] = test system: SW-620
[39] = test system: UO-31
[40] = test system: MOLT-4
[41] = test system: HCC 2998
[42] = test system: SN12C
[43] = test system: IGROV-1
[44] = test system: CAKI-1
[45] = test system: NCI-H522
[46] = test system: HCT-15
[47] = test system: HOP-62
[48] = test system: OVCAR-3
[49] = test system: SK-OV-3
[50] = test system: KM-20L2
[51] = test system: COLO 205
[52] = test system: SF-539
[53] = test system: KM12
[54] = test system: SF-295
[55] = test system: RXF 393
[56] = test system: SK-MEL-5
[57] = test system: UACC-257

For O=S(=O)(c1ccccc1)n1cc(C[P+](c2ccccc2)(c2ccccc2)c2ccccc2)c2ccccc21, the GI50 [1] was 3.33 µM (inactive), the GI50 [2] was 3.81 µM (inactive) and the GI50 [3] was 5.2 µM (inactive). For the same compound, the GI50 [4] was 2.3 µM (inactive), the GI50 [5] was 4.81 µM (inactive) and the GI50 [6] was 2.81 µM (inactive). For the same compound, the GI50 [7] was 3.25 µM (inactive), the GI50 [8] was 10.9 µM (inactive) and the GI50 [9] was 9.95 µM (inactive). For the same compound, the GI50 [10] was 2.99 µM (inactive), the GI50 [11] was 2.7 µM (inactive) and the GI50 [12] was 3.6 µM (inactive). For the same compound, the GI50 [13] was 15.3 µM (inactive), the GI50 [14] was 2.65 µM (inactive) and the GI50 [15] was 3.4 µM (inactive). For the same compound, the GI50 [16] was 2.04 µM (inactive), the GI50 [17] was 5.66 µM (inactive) and the GI50 [18] was 5.04 µM (inactive). For the same compound, the GI50 [19] was 2.43 µM (inactive), the GI50 [20] was 17.2 µM (inactive) and the GI50 [21] was 4.38 µM (inactive). The GI50 [22] was 3.37 µM (inactive), the GI50 [23] was 1.87 µM (inactive) and the GI50 [24] was 2.46 µM (inactive). The GI50 [25] was 3.21 µM (inactive), the GI50 [26] was 2.61 µM (inactive) and the GI50 [27] was 3.69 µM (inactive). For the same compound, the GI50 [28] was 5.12 µM (inactive), the GI50 [29] was 5.71 µM (inactive) and the GI50 [30] was 4.29 µM (inactive). The GI50 [31] was 2.91 µM (inactive), the GI50 [32] was 0.6 µM (active) and the GI50 [33] was 1.48 µM (inactive). The GI50 [34] was 2.64 µM (inactive), the GI50 [35] was 3.79 µM (inactive) and the GI50 [36] was 3.57 µM (inactive). For the same compound, the GI50 [37] was 15.6 µM (inactive), the GI50 [38] was 4.59 µM (inactive) and the GI50 [39] was 3.38 µM (inactive). The GI50 [40] was 4.91 µM (inactive), the GI50 [41] was 3.36 µM (inactive) and the GI50 [42] was 5.69 µM (inactive). The GI50 [43] was 2.08 µM (inactive), the GI50 [44] was 13.9 µM (inactive) and the GI50 [45] was 2.36 µM (inactive). For the same compound, the GI50 [46] was 16.6 µM, the GI50 [47] was 3.19 µM (inactive) and the GI50 [48] was 2.95 µM (inactive). For the same compound, the GI50 [49] was 2.5 µM (inactive), the GI50 [50] was 4.89 µM (inactive) and the GI50 [51] was 1.99 µM (inactive). For the same compound, the GI50 [52] was 4.59 µM (inactive), the GI50 [53] was 3.6 µM (inactive) and the GI50 [54] was 12 µM (inactive). The GI50 [55] was 6.35 µM (inactive) and the GI50 [56] was 1.67 µM (inactive).
CC(C)(C)C(=O)OCC1OC(N=[N+]=[N-])C(OC(=O)C(C)(C)C)C(OC(=O)C(C)(C)C)C1OC(=O)C(C)(C)C (centres undefined) was tested, and the GI50 [1] was > 100 µM (inactive), the GI50 [2] was > 100 µM (inactive) and the GI50 [3] was > 100 µM (inactive). The GI50 [4] was > 100 µM (inactive), the GI50 [6] was > 100 µM (inactive) and the GI50 [7] was > 100 µM (inactive). For the same compound, the GI50 [8] was > 100 µM (inactive), the GI50 [9] was > 100 µM (inactive) and the GI50 [10] was > 100 µM (inactive). For the same compound, the GI50 [11] was > 100 µM (inactive), the GI50 [12] was > 100 µM (inactive) and the GI50 [13] was > 100 µM (inactive). For the same compound, the GI50 [14] was > 100 µM (inactive), the GI50 [15] was > 100 µM (inactive) and the GI50 [16] was 58.6 µM (inactive). The GI50 [17] was > 100 µM (inactive), the GI50 [19] was > 100 µM (inactive) and the GI50 [20] was > 100 µM (inactive). For the same compound, the GI50 [21] was > 100 µM (inactive), the GI50 [22] was > 100 µM (inactive) and the GI50 [23] was > 100 µM (inactive). The GI50 [24] was > 100 µM (inactive), the GI50 [25] was > 100 µM (inactive) and the GI50 [26] was > 100 µM (inactive). For the same compound, the GI50 [27] was > 100 µM (inactive), the GI50 [28] was > 100 µM (inactive) and the GI50 [29] was > 100 µM (inactive). The GI50 [57] was 82.2 µM (inactive), the GI50 [31] was > 100 µM (inactive) and the GI50 [32] was > 100 µM (inactive). For the same compound, the GI50 [33] was > 100 µM (inactive), the GI50 [34] was > 100 µM (inactive) and the GI50 [35] was > 100 µM (inactive). For the same compound, the GI50 [37] was > 100 µM (inactive), the GI50 [38] was > 100 µM (inactive) and the GI50 [39] was > 100 µM (inactive). For the same compound, the GI50 [40] was > 100 µM (inactive), the GI50 [41] was > 100 µM (inactive) and the GI50 [42] was > 100 µM (inactive). The GI50 [43] was > 100 µM (inactive), the GI50 [44] was > 100 µM (inactive) and the GI50 [45] was > 100 µM (inactive). The GI50 [46] was over 100 µM, the GI50 [47] was > 100 µM (inactive) and the GI50 [48] was > 100 µM (inactive). For the same compound, the GI50 [49] was > 100 µM (inactive), the GI50 [50] was > 100 µM (inactive) and the GI50 [51] was > 100 µM (inactive). The GI50 [52] was > 100 µM (inactive), the GI50 [53] was > 100 µM (inactive) and the GI50 [54] was > 100 µM (inactive). The GI50 [55] was > 100 µM (inactive) and the GI50 [56] was > 100 µM (inactive).
